Laboratory results published in patent US11478471B2, “Methods and compositions for treating diabetes, metabolic syndrome and other conditions” (priority 2005, dated 2022).
In brackets after ≈: the same amount, converted by molar mass. Where two headings read alike, the source gives them in different places.

What was measured:
[1] = system: Candida albicans; assay: Antifungal MIC; type: cell-based
[2] = Toxicokinetics in the 28 day dog study of DIO-902 (with racemic ketoconazole group a); conditions: beagle, plasma; for AUC(0-t): AUC(0-12); for concentration at 0 h / concentration at 1 h / concentration at 2 h / concentration at 4 h / concentration at 8 h / concentration at 12 h: Drug concentration in plasma;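 on all read-outs here: beagle dogs dosed orally once daily within a 28-day GLP study, 3 animals per sex per group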
[3] = female, po, 2 mg/kg, dogs, 2 mg/kg oral, day 1, F
[4] = female, po, 2 mg/kg, dogs, 2 mg/kg oral, day 28, F
[5] = female, po, 6.5 mg/kg, dogs, 6.5 mg/kg oral, day 28, F
[6] = female, po, 6.5 mg/kg, dogs, 6.5 mg/kg oral, day 1, F
[7] = female, po, 20 mg/kg, dogs, 20 mg/kg oral, day 28, F
[8] = female, po, 20 mg/kg, dogs, 20 mg/kg oral, day 1, F
[9] = male, po, 2 mg/kg, dogs, 2 mg/kg oral, day 28, M
[10] = male, po, 2 mg/kg, dogs, 2 mg/kg oral, day 1, M

CC(=O)N1CCN(c2ccc(OC[C@@H]3CO[C@@](Cn4ccnc4)(c4ccc(Cl)cc4Cl)O3)cc2)CC1 [DIO-902, 2S,4R cis-1-acetyl-4-[4-[[2-(2,4-dichlorophenyl)-2-(1H-imidazol-1-ylmethyl)-1,3-dioxolan-4-yl]methoxyl]phenyl]piperazine]
MIC ([1]; DSM11225, DSM strain 11225, 48 h, read-out: MIC): < 0.015 µg/mL
MIC ([1]; DSM11943, DSM strain 11943, 48 h, read-out: MIC): < 0.015 µg/mL
MIC ([1]; DSM11944, DSM strain 11944, 48 h, read-out: MIC): < 0.015 µg/mL
MIC ([1]; DSM11945, DSM strain 11945, 48 h, read-out: MIC): 0.03 µg/mL (≈ 0.0565 µM)
MIC ([1]; DSM11948, DSM strain 11948, 48 h, read-out: MIC): < 0.015 µg/mL
MIC ([1]; DSM11949, 48 h): 0.125 µg/mL (≈ 0.235 µM)
MIC ([1]; strain 98-St-00799, 48 h, read-out: MIC): < 0.015 µg/mL
Tmax ([2]; both, oral, 20 mg/kg, Tmax values, dogs, 2, 6.5 and 20 mg/kg, Day 1): 1 to 8 h
Tmax ([2]; both, oral, 20 mg/kg, Tmax values, dogs, 2, 6.5 and 20 mg/kg, Day 28): 1 to 12 h
Cmax ([2]; both, po, 20 mg/kg/day, dogs, 20 mg/kg/day, day 28): 9940 to 9950 ng/mL
AUC(0-t) ([2]; female, po, 2 mg/kg, dogs, 2 mg/kg oral, day 1, F, n = 1): 2570 ng·h/mL
AUC(0-t) ([2]; female, po, 2 mg/kg, dogs, 2 mg/kg oral, day 28, F, n = 1): 2760 ng·h/mL
Cmax [2, 3]: 450 ng/mL
Cmax [2, 4]: 750 ng/mL
concentration at 0 h [2, 3]: < 250 ng/mL
concentration at 1 h [2, 3]: < 250 ng/mL
concentration at 2 h [2, 3]: 270 ng/mL
concentration at 4 h [2, 3]: 280 ng/mL
concentration at 8 h [2, 3]: < 250 ng/mL
concentration at 12 h [2, 3]: < 250 ng/mL
concentration at 0 h [2, 4]: < 250 ng/mL
concentration at 1 h [2, 4]: 290 ng/mL
concentration at 2 h [2, 4]: 520 ng/mL
concentration at 4 h [2, 4]: 300 ng/mL
concentration at 8 h [2, 4]: < 250 ng/mL
concentration at 12 h [2, 4]: < 250 ng/mL
Tmax ([2]; female, po, 2 mg/kg, Tmax Range, dogs, 2 mg/kg oral, day 1, F): 2 to 4 h
Tmax ([2]; female, po, 2 mg/kg, Tmax Range, dogs, 2 mg/kg oral, day 28, F): 1 to 8 h
AUC(0-t) ([2]; female, po, 6.5 mg/kg, dogs, 6.5 mg/kg oral, day 1, F, n = 1): 4700 ng·h/mL
AUC(0-t) [2, 5]: 12900 ng·h/mL
Cmax [2, 6]: 2570 ng/mL
Cmax [2, 5]: 2410 ng/mL
concentration at 0 h [2, 6]: < 250 ng/mL
concentration at 1 h [2, 6]: < 250 ng/mL
concentration at 2 h [2, 6]: 440 ng/mL
concentration at 4 h [2, 6]: 2320 ng/mL
concentration at 8 h [2, 6]: 500 ng/mL
concentration at 12 h [2, 6]: < 250 ng/mL
concentration at 0 h [2, 5]: < 250 ng/mL
concentration at 1 h [2, 5]: 250 ng/mL
concentration at 2 h [2, 5]: 1250 ng/mL
concentration at 4 h [2, 5]: 1850 ng/mL
concentration at 8 h [2, 5]: 1270 ng/mL
concentration at 12 h [2, 5]: 340 ng/mL
Tmax ([2]; female, po, 6.5 mg/kg, Tmax Range, dogs, 6.5 mg/kg oral, day 1, F): 2 to 4 h
Tmax ([2]; female, po, 6.5 mg/kg, Tmax Range, dogs, 6.5 mg/kg oral, day 28, F): 2 to 8 h
AUC(0-t) ([2]; female, po, 20 mg/kg, dogs, 20 mg/kg oral, day 1, F, n = 2): 80600 ng·h/mL
AUC(0-t) [2, 7]: 77800 ng·h/mL
Cmax [2, 8]: 14700 ng/mL
Cmax [2, 7]: 9950 ng/mL
concentration at 0 h [2, 8]: < 250 ng/mL
concentration at 1 h [2, 8]: < 250 ng/mL
concentration at 2 h [2, 8]: 650 ng/mL
concentration at 4 h [2, 8]: 9720 ng/mL
concentration at 8 h [2, 8]: 9950 ng/mL
concentration at 12 h [2, 8]: 5440 ng/mL
concentration at 0 h [2, 7]: 2880 ng/mL
concentration at 1 h [2, 7]: 1780 ng/mL
concentration at 2 h [2, 7]: 2430 ng/mL
concentration at 4 h [2, 7]: 6420 ng/mL
concentration at 8 h [2, 7]: 9830 ng/mL
concentration at 12 h [2, 7]: 6530 ng/mL
Tmax ([2]; female, po, 20 mg/kg, Tmax Range, dogs, 20 mg/kg oral, day 1, F): 4 to 8 h
Tmax ([2]; female, po, 20 mg/kg, Tmax Range, dogs, 20 mg/kg oral, day 28, F): 8 to 12 h
AUC(0-t) ([2]; male, po, 2 mg/kg, dogs, 2 mg/kg oral, day 1, M, n = 1): 2390 ng·h/mL
AUC(0-t) [2, 9]: 3260 ng·h/mL
Cmax [2, 10]: 510 ng/mL
Cmax [2, 9]: 680 ng/mL
concentration at 0 h [2, 10]: < 250 ng/mL
concentration at 1 h [2, 10]: 400 ng/mL
concentration at 2 h [2, 10]: 450 ng/mL
concentration at 4 h [2, 10]: < 250 ng/mL
concentration at 8 h [2, 10]: < 250 ng/mL
concentration at 12 h [2, 10]: < 250 ng/mL
